Data: patent US12454527B2, “Conjugate monomethyl auristatin E to obtain a composition for treatment of prostate cancer” (priority 2019, dated 2025)
“Also recorded” adds a separate entry of the source. Non-standard residues stand in square brackets, D forms with d. Residues, ends and D or L forms follow the SMILES beside them. *: point of attachment. Dolaproine = CO[C@@H]([C@@H]1CCCN1)[C@@H](C)C(=O)O; Dil = CC[C@H](C)[C@H](NC)[C@@H](CC(=O)O)OC; X2 = C[C@@H](N*)[C@@H](O)c1ccccc1; NMeV = CN[C@H](C(=O)O)C(C)C

Assays:
[1] = Chronic toxicity study, intravenous once every 3 weeks, rats; format: in vivo
Text: (§1) Chronic toxicity study of Conjugate (1) product on Rats and rabbits.
(§2) • 1. Conjugate (I). • 2. Solubilizer Pluronic F127—in the amount, five-fold greater than the conjugate amount by weight. • 3. Diluent—Haemodes infusion solution. • 4. Dimethyl sulfoxide—in the amount of 5% of the prepared volume.
(§3) A 1 00 white ° inbred mature male rats about 2 months old with a body weight of 190-210 g and 60 sexually mature male rabbits of the Soviet Chinchilla breed about 2 months old with a body weight of […] were involved in the experiment.
(§4) The study design determined the intravenous administration of the test drugs once every 3 weeks for 3 months (a total of 4 injections) for the experiment of chronic toxicity determination. The local irritant effect of the products within intravenous administration will be studied together with the chronic toxicity study.
(§5) Each animal received the intravenous injection of the test drug or the reference drug in a volume not exceeding the acceptable volume for a single injection of 2 mL for rats and 20 mL for rabbits. The products were replaced with a Pluronic solution with DMSO in Haemodes in the control group of animals. The duration of observation for laboratory animals was 4 weeks (intermediate stage).
(§6) Apparent signs of intoxication were evaluated daily. During the study, integral indicators of animal health were recorded (see Tables 15. 16, 17).

[2] = Chronic toxicity study, intravenous once every 3 weeks, rabbits; format: in vivo
Text: as §1, §2, §3, §4, §5, §6

CC[C@H](C)[C@@H]([C@@H](CC(=O)N1CCC[C@H]1[C@H](OC)[C@@H](C)C(=O)N[C@H](C)[C@@H](O)c1ccccc1)OC)N(C)C(=O)[C@@H](NC(=O)[C@@H](NC)C(C)C)C(C)C [MMAE, Monomethyl auristatin E] (H-[NMeV]V[Dil][Dolaproine]-X2)
Signs of intoxication ([1]; male rats, group 5, 10 μg/kg intravenously 1 time in 3 weeks): with impaired movement; also recorded: coordination, shortness of breath,; also recorded: diarrhea; also recorded: position, tremor, the hind limb; also recorded: the hindlimb paresis; rats No. 3-5 -; also recorded: decreased motor activity, the hind; also recorded: hindlimb paresis, porphyrin secretion
Signs of intoxication: loss of body weight ([1]; male rats, group 5, 10 μg/kg, 30 Apr. 2019): 15 to 20 g
Necropsy ([1]; male rats, group 5, 10 μg/kg, animals No. 1, 5, 6 and No. 3): severely inflated; adrenal glands were 2-fold; also recorded: increase; blood in the kidneys, pink renal pelvis; also recorded: hemorrhages and ulcers; the kidneys were pale,; also recorded: liver was granular, palish
Animals survived up to the second injection ([1]; rats, chronic, reference drug): only one rat animal
Chronic toxicity (overall) ([1]; rats, i.v. once every 3 weeks, intermediate stage 4 weeks): high toxicity
Signs of intoxication: the intake of feed and water ([2]; male rabbits, group 10, 5.4 μg/kg, after administration): decreased. About a day after
Signs of intoxication ([2]; male rabbits, group 10, 5.4 μg/kg, about a day after administration and before death): superficial respiration and adynamia
Necropsy ([2]; male rabbits, group 10, 5.4 μg/kg, rabbit No. 4): grayish tint; thymus had hemorrhages;
Animals survived up to the second injection ([2]; rabbits, chronic, reference drug): no rabbits
Chronic toxicity (overall) ([2]; rabbits, i.v. once every 3 weeks, intermediate stage 4 weeks): high toxicity
